According to ChEMBL document CHEMBL2396625 (Bioorg Med Chem Lett, 2013):

Columns and labels:
[1] = molecular target: Protein tyrosine phosphatase type IVA 3 (Homo sapiens, UniProt O75365); experiment: Inhibition of human His6-tagged full length PRL3 assessed as inhibition of DiFMUP dephosphorylation at 5 ug/ml relative to control
DLD-1 = experiment: Antimigratory activity against human DLD1 cells overexpressing PRL3 at 10 ug/ml after 20 hrs by crystal violet staining-based light microscopic analysis relative to control; format: functional; conditions: DLD-1, 20 h
[2] = Cytotoxicity against human DLD1 cells overexpressing PRL3 assessed as cell viability at 10 ug/ml after 24 hrs by WST-1 assay relative to control; format: cell-based; conditions: DLD-1 cells overexpressing PRL3, read-out: Activity

Protein tyrosine phosphatase type IVA 3, sequence (O75365 whole entry): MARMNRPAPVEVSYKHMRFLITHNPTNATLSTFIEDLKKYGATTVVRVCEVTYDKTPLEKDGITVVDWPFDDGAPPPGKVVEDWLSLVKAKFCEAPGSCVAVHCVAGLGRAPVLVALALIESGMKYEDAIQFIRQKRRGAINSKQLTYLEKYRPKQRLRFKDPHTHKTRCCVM

Row | inhibition [1] | SMILES | inhibition at 10 µg/mL (DLD-1) | viability at 24 h, 10 ug/ml [2]
1 | 41.7% | COc1ccccc1/C=C/C=C1\SC(=S)NC1=O | 69% | 98.8%
2 | 22.5% | O=C1NC(=O)/C(=C/C=C/c2ccccc2OCc2ccccc2Br)S1 | 50% | 37.7%
3 | 51.9% | O=C1NC(=S)S/C1=C\C=C\c1ccccc1O | 65% | 96.3%
4 | 35.2% | O=C1NC(=S)S/C1=C\C=C\c1ccccc1NC(=O)c1ccccc1 | 68% | 97.1%
5 | 37.4% | O=C1NC(=S)S/C1=C\C=C\c1ccccc1 | 81% | 96.6%
6 | 64.2% | O=C1NC(=S)S/C1=C\C=C\c1ccccc1OS(=O)(=O)c1ccccc1 | 80% | 83.1%
7 | 39.4% | O=C1NC(=S)S/C1=C\C=C\c1ccccc1OCc1ccncc1 | 62% | 96.5%
8 | 52.8% | Cc1ccccc1COc1ccccc1/C=C/C=C1\SC(=S)NC1=O | 73% | 75.5%
9 | 53.9% | O=C1NC(=S)S/C1=C\C=C\c1ccccc1Cl | 80% | 81.9%
10 | 30.6% | O=C1NC(=S)S/C1=C\C=C\c1ccccc1OC(=O)c1ccccc1 | 40% | 99.2%
11 | 49.5% | O=C1NC(=S)S/C1=C\C=C\c1ccccc1OCc1ccccc1 | 65% | 87.9%
12 | 63.1% | O=C1NC(=S)S/C1=C\C=C\c1ccccc1OCc1ccccc1Br | 78% | 78.8%
13 | 52.9% | COc1cccc(COc2ccccc2/C=C/C=C2\SC(=S)NC2=O)c1 | 82% | 87.1%
14 | 40.3% | O=C1NC(=S)S/C1=C\C=C\c1cc(Br)ccc1OCc1ccccc1Br | 71% | 72.3%
15 | 47.1% | O=C1NC(=S)S/C1=C\C=C\c1cccnc1 | 45% | 105%
16 | 40.8% | O=C1NC(=S)S/C1=C\C=C\c1ccccc1OCc1ccccc1C(F)(F)F | 80% | 41.5%
